{"source": "PubChem BioAssay AID180", "about": "(DTP/NCI, 2004)", "system": "BDF1 mice, Adenocarcinoma 755 s.c., tumor weight T/C", "test": "NCI In Vivo Anticancer Drug Screen. Data for tumor model Adenocarcinoma 755 (subcutaneous) in B6D2F1 (BDF1) mice", "conditions": "endpoint: mean tumor weight, higher = larger tumour", "summary_of_the_method": "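Tumor-bearing mice receive test compound while controls get vehicle alone. Antitumor effect is scored from survival or tumor dimensions as a T/C quotient.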", "key": {"[1]": {"conditions": "dose: 25.0 mg/kg/injection, schedule: Q01DX011 (ip), vehicle: carboxymethylcellulose (CMC)"}, "[2]": {"conditions": "dose: 100.0 mg/kg/injection, schedule: Q01DX011 (ip), vehicle: methylcellulose (MC)"}, "[3]": {"conditions": "dose: 200.0 mg/kg/injection, schedule: Q01DX011 (ip), vehicle: methylcellulose (MC)"}, "[4]": {"conditions": "dose: 7.0 mg/kg/injection, schedule: Q01DX011 (sc), vehicle: steriod suspending solution"}, "[5]": {"conditions": "dose: 28.0 mg/kg/injection, schedule: Q01DX011 (sc), vehicle: steriod suspending solution"}, "[6]": {"conditions": "dose: 25.0 mg/kg/injection, schedule: Q01DX011 (ip), vehicle: methylcellulose (MC)"}, "[7]": {"conditions": "dose: 80.0 mg/kg/injection, schedule: Q01DX011 (ip), vehicle: methylcellulose (MC)"}}, "note": "Values joined by “and” are separate entries in the source; they are usually repeats but may differ in a detail not shown here. Identical values can stand only once.", "data": [{"smiles": "CNc1nc(N)nc(Nc2ccc(I)cc2)c1N=O", "values": [{"measurement": "T/C", "setting": "dose: 12.5 mg/kg/injection, schedule: Q01DX011 (ip), vehicle: carboxymethylcellulose (CMC)", "result": "52 % of control"}, {"measurement": "T/C", "setting": "[1]", "result": "39 % of control and 52 % of control"}, {"measurement": "T/C", "setting": "dose: 50.0 mg/kg/injection, schedule: Q01DX011 (ip), vehicle: methylcellulose (MC)", "result": "31 % of control"}, {"measurement": "T/C", "setting": "dose: 100.0 mg/kg/injection, schedule: Q01DX011 (ip), vehicle: carboxymethylcellulose (CMC)", "result": "20 % of control and 36 % of control and 38 % of control"}, {"measurement": "T/C", "setting": "[2]", "result": "46 % of control"}, {"measurement": "T/C", "setting": "dose: 200.0 mg/kg/injection, schedule: Q01DX011 (ip), vehicle: carboxymethylcellulose (CMC)", "result": "28 % of control and 30 % of control"}, {"measurement": "T/C", "setting": "[3]", "result": "25 % of control"}, {"measurement": "T/C", "setting": "dose: 400.0 mg/kg/injection, schedule: Q01DX011 (ip), vehicle: methylcellulose (MC)", "result": "12 % of control"}]}, {"smiles": "C[C@@H]1C[C@H]2[C@@H]3CCC4=CC(=O)C=C[C@]4(C)[C@@]3(F)[C@@H](O)C[C@]2(C)[C@@]1(O)C(=O)CO", "values": [{"measurement": "T/C", "setting": "[4]", "result": "19 % of control and 32 % of control and 39 % of control"}, {"measurement": "T/C", "setting": "dose: 14.0 mg/kg/injection, schedule: Q01DX011 (sc), vehicle: steriod suspending solution", "result": "1 % of control and 25 % of control"}, {"measurement": "T/C", "setting": "dose: 21.0 mg/kg/injection, schedule: Q01DX011 (sc), vehicle: steriod suspending solution", "result": "4 % of control"}, {"measurement": "T/C", "setting": "[5]", "result": "10 % of control"}]}, {"smiles": "CCCCn1cnc2c(SCC(=O)O)nc(N)nc21", "values": [{"measurement": "T/C", "setting": "[6]", "result": "54 % of control"}, {"measurement": "T/C", "setting": "[7]", "result": "58 % of control"}, {"measurement": "T/C", "setting": "dose: 250.0 mg/kg/injection, schedule: Q01DX011 (ip), vehicle: methylcellulose (MC)", "result": "69 % of control"}]}, {"smiles": "c1ccc(N2N=C3N(c4ccccc4)C2N3c2ccccc2)cc1", "values": [{"measurement": "T/C", "setting": "dose: 15.0 mg/kg/injection, schedule: Q01DX011 (ip), vehicle: other", "result": "87 % of control"}]}, {"smiles": "COc1ncnc2nc[nH]c12", "values": [{"measurement": "T/C", "setting": "dose: 62.0 mg/kg/injection, schedule: Q01DX011 (ip), vehicle: other", "result": "107 % of control"}, {"measurement": "T/C", "setting": "dose: 125.0 mg/kg/injection, schedule: Q01DX011 (ip), vehicle: other", "result": "90 % of control"}, {"measurement": "T/C", "setting": "dose: 250.0 mg/kg/injection, schedule: Q01DX011 (ip), vehicle: other", "result": "44 % of control"}]}, {"smiles": "OC1CC([CH2][Hg][Cl])OC([CH2][Hg][Cl])C1", "note": "(stereo not drawn)", "values": [{"measurement": "T/C", "setting": "dose: 6.0 mg/kg/injection, schedule: Q01DX011 (ip), vehicle: carboxymethylcellulose (CMC)", "result": "95 % of control"}, {"measurement": "T/C", "setting": "dose: 12.0 mg/kg/injection, schedule: Q01DX011 (ip), vehicle: carboxymethylcellulose (CMC)", "result": "109 % of control"}, {"measurement": "T/C", "setting": "[1]", "result": "28 % of control and 36 % of control"}, {"measurement": "T/C", "setting": "dose: 50.0 mg/kg/injection, schedule: Q01DX011 (ip), vehicle: carboxymethylcellulose (CMC)", "result": "92 % of control"}]}, {"smiles": "Clc1ccc(CNc2ncnc3c2cnn3C2CCCCO2)cc1Cl", "note": "(stereo not drawn)", "values": [{"measurement": "T/C", "setting": "dose: 12.5 mg/kg/injection, schedule: Q01DX011 (ip), vehicle: methylcellulose (MC)", "result": "83 % of control"}, {"measurement": "T/C", "setting": "[6]", "result": "105 % of control"}, {"measurement": "T/C", "setting": "[2]", "result": "40 % of control and 61 % of control"}, {"measurement": "T/C", "setting": "[3]", "result": "23 % of control"}]}, {"smiles": "Nc1ncnc2c1ncn2C1CCCO1", "note": "(stereo not drawn)", "values": [{"measurement": "T/C", "setting": "dose: 18.7 mg/kg/injection, schedule: Q01DX011 (ip), vehicle: saline", "result": "111 % of control"}, {"measurement": "T/C", "setting": "dose: 37.5 mg/kg/injection, schedule: Q01DX011 (ip), vehicle: saline", "result": "120 % of control"}, {"measurement": "T/C", "setting": "dose: 75.0 mg/kg/injection, schedule: Q01DX011 (ip), vehicle: saline", "result": "119 % of control"}, {"measurement": "T/C", "setting": "dose: 150.0 mg/kg/injection, schedule: Q01DX011 (ip), vehicle: saline", "result": "52 % of control"}, {"measurement": "T/C", "setting": "dose: 300.0 mg/kg/injection, schedule: Q01DX011 (ip), vehicle: saline", "result": "23 % of control"}]}, {"smiles": "Cn1c(=O)c2[nH]c(N/N=C/c3ccccc3)nc2n(C)c1=O", "values": [{"measurement": "T/C", "setting": "dose: 20.0 mg/kg/injection, schedule: Q01DX011 (ip), vehicle: methylcellulose (MC)", "result": "56 % of control"}, {"measurement": "T/C", "setting": "[6]", "result": "45 % of control and 53 % of control"}, {"measurement": "T/C", "setting": "[7]", "result": "73 % of control"}, {"measurement": "T/C", "setting": "dose: 225.0 mg/kg/injection, schedule: Q01DX011 (ip), vehicle: methylcellulose (MC)", "result": "41 % of control and 46 % of control"}]}, {"smiles": "C[C@]12CCC(=O)C=C1CC[C@H]1[C@@H]3CC[C@](O)(C(=O)CF)[C@@]3(C)C[C@H](O)[C@@]12F", "values": [{"measurement": "T/C", "setting": "dose: 0.87 mg/kg/injection, schedule: Q01DX011 (sc), vehicle: steriod suspending solution", "result": "86 % of control"}, {"measurement": "T/C", "setting": "dose: 1.75 mg/kg/injection, schedule: Q01DX011 (sc), vehicle: steriod suspending solution", "result": "68 % of control"}, {"measurement": "T/C", "setting": "dose: 3.5 mg/kg/injection, schedule: Q01DX011 (sc), vehicle: steriod suspending solution", "result": "66 % of control and 69 % of control"}, {"measurement": "T/C", "setting": "[4]", "result": "29 % of control and 34 % of control and 40 % of control"}, {"measurement": "T/C", "setting": "[5]", "result": "9 % of control and 28 % of control"}, {"measurement": "T/C", "setting": "dose: 56.0 mg/kg/injection, schedule: Q01DX011 (sc), vehicle: steriod suspending solution", "result": "10 % of control and 31 % of control"}]}, {"smiles": "CS(=O)(=O)OCC(=O)N1CCN(C(=O)COS(C)(=O)=O)CC1", "values": [{"measurement": "T/C", "setting": "[6]", "result": "63 % of control"}, {"measurement": "T/C", "setting": "dose: 75.0 mg/kg/injection, schedule: Q01DX011 (ip), vehicle: methylcellulose (MC)", "result": "67 % of control"}]}, {"smiles": "C=CC(O)CN1CC1C", "note": "(stereo not drawn) (tested in a mixture with another compound)", "values": [{"measurement": "T/C", "setting": "dose: 1.9 mg/kg/injection, schedule: Q01DX011 (ip), vehicle: methylcellulose (MC)", "result": "85 % of control"}, {"measurement": "T/C", "setting": "dose: 3.75 mg/kg/injection, schedule: Q01DX011 (ip), vehicle: methylcellulose (MC)", "result": "100 % of control"}, {"measurement": "T/C", "setting": "dose: 7.5 mg/kg/injection, schedule: Q01DX011 (ip), vehicle: methylcellulose (MC)", "result": "97 % of control"}, {"measurement": "T/C", "setting": "dose: 15.0 mg/kg/injection, schedule: Q01DX011 (ip), vehicle: methylcellulose (MC)", "result": "71 % of control"}]}]}
